Tested on: diamondback moth, Plutella xylostella
Assay: Diamondback moth bioassay on track-sprayed cabbage plants/leaf discs, percent control
Type: in vivo
Method: Three second-instar diamondback moth, Plutella xylostella, were infested onto each leaf disc. […] The “Colby's Expected Action” was calculated using Colby's equation as discussed previously.

SMILES	% Control Three Days After Treatment (compound I alone, dose rate 0.000625 weight %) [%]	% Control Three Days After Treatment (compound I alone, dose rate 0.000625 weight %, listed as compound I)	% Control Three Days After Treatment (compound I alone, dose rate 0.0025 weight %, second-instar larvae, 400 L/Ha spray)	% Control Three Days After Treatment (flonicamid alone, dose rate 0.000039 weight %) [%]	% Control Three Days After Treatment (flonicamid alone, dose rate 0.000156 weight %) [%]
CCN(C(=O)CCSCCC(F)(F)F)c1cn(-c2cccnc2)nc1Cl [Compound I, N-(3-chloro-1-(pyridin-3-yl)-1H-pyrazol-4-yl)-N-ethyl-3-((3,3,3-trifluoropropyl)thio)propanamide]	0	no control	no control	–	–
N#CCNC(=O)c1cnccc1C(F)(F)F [Flonicamid, N-(cyanomethyl)-4-(trifluoromethyl)-3-pyridinecarboxamide, reference compound]	–	–	–	4.17	4.17

Reference: patent US9149040B2, “Synergistic pesticidal compositions and related methods” (Dow AgroSciences LLC, priority 2013, dated 2015)
